A short description of data set [1]: Ratio of drug level in brain to plasma in C57BL/6 mouse at 30 mg/kg, po measured at 1 hr by HPLC-MS analysis. The format is ADME, organism-based. Conditions: brain and plasma, read-out: BPR.
Data set [2] can be described thus: Ratio of drug level in brain to plasma in Sprague-Dawley rat at 5 mg/kg, iv by HPLC-MS analysis. The format is ADME, organism-based. Particulars: brain and plasma, read-out: BPR.
Data set [3] in a line: AUC in Sprague-Dawley rat plasma at 5 mg/kg, iv by HPLC-MS analysis. The format is ADME, organism-based.
The nature of data set [4]: AUC in Sprague-Dawley rat brain at 5 mg/kg, iv by HPLC-MS analysis. The format is ADME, organism-based.
Data set [5] can be described thus: AUC (0 to 48 hrs) in HSD athymic nude mouse xenografted with human HCHZ2H1 cells at 200 mg/kg, po administered as single dose by LC-MS/MS analysis. Further details: dose 200 mg/kg, time < 48 hr, route oral. The class given is ADME, organism-based. Conditions: in vivo. (In xenograft studies the graft and the host belong to different species.)
Data set [6] can be described thus: AUC in Sprague-Dawley rat at 10 mg/kg, po by HLPC-MS analysis. Particulars: in vivo. The class given is ADME, organism-based.
Data set [7] is described as follows: Cmax in HSD athymic nude mouse xenografted with human HCHZ2H1 cells at 200 mg/kg, po administered as single dose by LC-MS/MS analysis. The class given is ADME, organism-based. Particulars: in vivo. Further details: dose 200 mg/kg, route oral.
Data set [8] deals with Mus musculus. Description: Unbound AUC (0 to 48 hrs) in HSD athymic nude mouse xenografted with human HCHZ2H1 cells at 200 mg/kg, po administered as single dose by LC-MS/MS analysis. The format is ADME, organism-based. Particulars: in vivo.
Data set [9] relates to Mus musculus. Description: Unbound Cmax in HSD athymic nude mouse xenografted with human HCHZ2H1 cells at 200 mg/kg, po administered as single dose by LC-MS/MS analysis. The class given is ADME, organism-based. Particulars: in vivo.
The subject of data set [10] is Mus musculus. Description: Time at which unbound plasma concentration stays above cellular IDH1 R132H mutant inhibitory IC50 in HSD athymic nude mouse xenografted with human HCHZ2H1 cells. The format is ADME, organism-based. Conditions: in vivo.
Data set [11] is described as follows: AUC (0 to 8 hrs) in nude mouse xenografted with human HMEX2838 cells at 30 mg/kg, po administered via gavage as single dose by LC-MS/MS analysis. The format is ADME, organism-based. Set-up: dose 30 mg/kg, time < 8 hr, route oral. Particulars: in vivo.
The nature of data set [12]: AUC (0 to 8 hrs) in nude mouse xenografted with human HMEX2838 cells at 100 mg/kg, po administered via gavage as single dose by LC-MS/MS analysis. The format is ADME, organism-based. Set-up: time < 8 hr, dose 100 mg/kg, route oral. Conditions: in vivo.
Data set [13] can be described thus: AUC (0 to 24 hrs) in nude mouse xenografted with human HMEX2838 cells at 300 mg/kg, po administered via gavage as single dose by LC-MS/MS analysis. The class given is ADME, organism-based. Further details: dose 300 mg/kg, time < 24 hr, route oral. Particulars: in vivo.
Data set [14] can be described thus: AUC (0 to 12 hrs) in nude mouse xenografted with human HMEX2838 cells at 30 mg/kg, po bid administered via gavage by LC-MS/MS analysis. Set-up: time < 12 hr, dose 30 mg/kg, route oral. The class given is ADME, organism-based. Particulars: in vivo.
The nature of data set [15]: AUC (0 to 12 hrs) in nude mouse xenografted with human HMEX2838 cells at 100 mg/kg, po bid administered via gavage by LC-MS/MS analysis. Further details: time < 12 hr, dose 100 mg/kg, route oral. Conditions: in vivo. The format is ADME, organism-based.
Data set [16] is described as follows: AUC (0 to 12 hrs) in nude mouse xenografted with human HMEX2838 cells at 300 mg/kg, po bid administered via gavage by LC-MS/MS analysis. The format is ADME, organism-based. Set-up: time < 12 hr, dose 300 mg/kg, route oral. Conditions: in vivo.
Data set [17] can be described thus: Solubility of the compound at pH 6.8. The format is physicochemical. Particulars: buffer.
Data set [18] in a line: Lipophilicity, log D of the compound at pH 7.4. The class given is physicochemical. Conditions: buffer.
Data set [19] can be described thus: Fraction absorbed of compound by PAMPA. The class given is ADME. Conditions: read-out: Fabs. On the technique in general: In PAMPA a lipid-coated filter parts donor from acceptor wells.
A short description of data set [20]: in vivo. Particulars: C57BL/6, mouse, brain and plasma, po, 30 mg/kg.
Data set [21] can be described thus: in vivo. Particulars: Sprague-Dawley, rat, brain and plasma, iv, 5 mg/kg.

In brackets after ≈: the same amount, converted by molar mass.

What is called AUC is concentration integrated over time. One may read the AUC(0-t) as exposure summed from dosing to a finite time, without extrapolation to infinity. A low value points to less exposure. The Cmax is the peak of the concentration-time curve. The solubility is the dissolved amount per volume that the medium holds. Higher therefore signals a readily soluble substance. In general, logD refers to lipophilicity at a set pH, counting ionised and neutral species.

Take `Cc1cc([C@H](C)Nc2nccc(N3C(=O)OC[C@@H]3[C@H](C)F)n2)ncc1-c1ccnc(C(F)(F)F)c1`: the Kp at 1 h in data set [1] was determined as 0.29. The Kp in [2] was 0.61. Moreover, the AUC in data set [3] was determined as 5.5 µM·h; in [4], 3.4 µM·h; in data set [6], 6.2 µM·h. Also, the AUC(0-t) at 48 h in [5] came to 149 µM·h. In addition, in data set [7], the concentration peaked (Cmax) at 16.2 µM. Also, the fAUC in data set [8] came to 17.3 µM·h. In data set [9], the fCmax was 1.88 µM. The compound also gave a Time in data set [10] above 12 h. Further, the values for the AUC(0-t) at 8 h in data set [11] and in data set [12] were 10.1 µM·h and 71.9 µM·h, respectively. The compound further came in with an AUC(0-t) at 24 h in [13] of 212 µM·h. Moreover, the values for the AUC at 12 h in data set [14], in data set [15] and in [16] were 5.4 µM·h, 19.2 µM·h and 88.9 µM·h, respectively. In data set [17], this compound gave a solubility of 130 µM (≈ 63.8 µg/mL). This compound showed a logD in data set [18] of 2.8. In [19], the Fa amounted to 99.3%. Besides, the Kp uu at 1 h in data set [20] was 0.17. This compound also yielded a Kp uu in data set [21] of 0.18.

The compound `CC(C)[C@H]1COC(=O)N1c1ccnc(N[C@@H](C)c2ccc(-c3ccnc(C(F)(F)F)c3)cn2)n1` registered an AUC in data set [6] of 1.6 µM·h.

In turn, `Cc1cc(-c2ccc([C@H](C)Nc3nccc(N4C(=O)OC[C@@H]4C(C)C)n3)nc2)ccn1` returned a solubility in data set [17] of 430 µM (≈ 180 µg/mL).

`Cc1cc(-c2cnc([C@H](C)Nc3nccc(N4C(=O)OC[C@@H]4C(C)C)n3)nc2)ccc1F` yielded an AUC in data set [6] of 0.2 µM·h. Moreover, the logD in [18] is 3.4.

Regarding `Cc1cc(-c2cnc([C@H](C)Nc3nccc(N4C(=O)OC[C@@H]4C(C)C)n3)cn2)ccc1F`, in [17], the solubility is below 5 µM.
